The numbers were not newly measured in patent publication US20170326105A1, “MELATONIN-BASED NASAL COMPOSITIONS AND USES THEREOF” (The Lester Smith Medical Research Institute, LLC, priority 2016, published 2017), which cites them from elsewhere.

As for `COc1ccc2[nH]cc(CCNC(C)=O)c2c1` [melatonin, N-acetyl-5-methoxy tryptamine], where the note is “after discontinuation of chronic dosing of less than 10 mg/day”, the “time for plasma levels to return to baseline” value was at most 24 h. In addition, the “estimated peak blood levels above physiological levels” value (doses of melatonin 5 mg) is reported as 25 times. In addition, the “time after administration for blood plasma concentration to reach its peak” value (oral administration) is “over an hour”.
